Measurements from US9115117B2, “Substituted piperidine compounds and their use as orexin receptor modulators” (JANSSEN PHARMACEUTICA NV, priority 2013, dated 2015).

These compounds were tested against human orexin 2 receptor (Homo sapiens (Human), UniProt O43614) (assay: Human orexin 2 receptor radioligand binding ([3H]-EMPA)). Conditions: HEK293 stably expressing human orexin 2 receptor; [3H]-EMPA; apparent Ki; read-out: hOX2 Ki.
Method: After centrifugation (2K×G, 5 min at 4° C.), the supernatant was aspirated and the pellets frozen and stored at −80° C. […] Each cell pellet from a 15 cm plate was resuspended in 10 mL, stored on ice, and homogenized for 45 sec just prior to addition to the reactions. Competition binding experiments in 96 well polypropylene plates were performed using [^3H]-EMPA (Moraveck Corporation, specific activity=29.6 Ci/mmol), diluted to a 5 nM concentration in PBS (2 nM final concentration). […] The final concentration of DMSO in the reactions is equal to or less than 0.1%. Total and nonspecific binding was determined in the absence and presence of […]. The total volume of each reaction is 200 μL (20 μL of diluted compounds, 80 μL of [^3H]-EMPA diluted in PBS and 100 μL of the cell suspension).
The plates were washed 3 times by aspirating 30 ml PBS through the plates. Plates were dried in 55° C. oven for 60 min, scintillation fluid was added, and the radioactivity was counted on a Topcount (Packard).

Sequence of human orexin 2 receptor (O43614 whole entry): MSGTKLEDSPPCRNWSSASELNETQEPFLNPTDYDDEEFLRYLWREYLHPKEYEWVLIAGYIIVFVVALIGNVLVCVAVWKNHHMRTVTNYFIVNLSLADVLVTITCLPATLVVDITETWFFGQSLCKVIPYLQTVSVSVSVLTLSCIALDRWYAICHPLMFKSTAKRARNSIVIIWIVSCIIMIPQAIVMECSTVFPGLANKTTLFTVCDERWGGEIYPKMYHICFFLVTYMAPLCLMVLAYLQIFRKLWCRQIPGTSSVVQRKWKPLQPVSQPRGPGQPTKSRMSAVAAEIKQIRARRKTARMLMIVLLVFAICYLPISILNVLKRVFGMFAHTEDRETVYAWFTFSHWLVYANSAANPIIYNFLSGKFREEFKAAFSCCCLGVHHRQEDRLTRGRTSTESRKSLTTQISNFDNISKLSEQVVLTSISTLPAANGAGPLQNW

Row | Structure (SMILES) | Ki
1 | C[C@H]1[C@H](Nc2ccc(Cl)cn2)CCCN1C(=O)c1ccccc1-n1nccn1 (racemic) [Example 32, (±)-trans-(2-(2H-1,2,3-triazol-2-yl)phenyl)(3-((5-chloropyridin-2-yl)amino)-2-methylpiperidin-1-yl)methanone] | 286 nM
2 | C[C@H]1[C@H](Nc2ncc3ccccc3n2)CCCN1C(=O)c1ccccc1-n1nccn1 (racemic) [Example 39, (±)-trans-(2-(2H-1,2,3-triazol-2-yl)phenyl)(2-methyl-3-(quinazolin-2-ylamino)piperidin-1-yl)methanone] | 189 nM
3 | C[C@H]1[C@H](Nc2cnc3ccccc3n2)CCCN1C(=O)c1ccccc1-n1nccn1 (racemic) [Example 48, (±)-trans-(2-(2H-1,2,3-triazol-2-yl)phenyl)(2-methyl-3-(quinoxalin-2-ylamino)piperidin-1-yl)methanone] | 96 nM
4 | Cc1cnc(N[C@@H]2CCCN(C(=O)c3ccccc3-n3nccn3)[C@H]2C)nc1 (racemic) [Example 31, (±)-trans-(2-(2H-1,2,3-triazol-2-yl)phenyl)(2-methyl-3-((5-methylpyrimidin-2-yl)amino)piperidin-1-yl)methanone] | 508 nM
5 | CCOc1ccccc1C(=O)N1CCC[C@@H](Nc2nc3cc(Cl)ccc3o2)[C@@H]1C (racemic) [Example 46, (±)-trans-(3-((5-chlorobenzo[d]oxazol-2-yl)amino)-2-methylpiperidin-1-yl)(2-ethoxyphenyl)methanone] | 489 nM
6 | C[C@H]1[C@H](Nc2ccc(C(F)(F)F)cn2)CCCN1C(=O)c1cc(F)ccc1-n1nccn1 (racemic) [Example 24, (±)-trans-(5-fluoro-2-(2H-1,2,3-triazol-2-yl)phenyl)(2-methyl-3-((5-(trifluoromethyl)pyridin-2-yl)amino)piperidin-1-yl)methanone] | 324 nM
7 | CCOc1ccccc1C(=O)N1CCC[C@@H](Nc2nccc(-c3ccccc3)n2)[C@@H]1C (racemic) [Example 53, (±)-trans-(2-ethoxyphenyl)(2-methyl-3-((4-phenylpyrimidin-2-yl)amino)piperidin-1-yl)methanone] | 58 nM
8 | C[C@H]1[C@H](Nc2ccc(C(F)(F)F)cn2)CCCN1C(=O)c1ncccc1-n1nccn1 (racemic) [Example 21, (±)-trans-(3-(2H-1,2,3-triazol-2-yl)pyridin-2-yl)(2-methyl-3-((5-(trifluoromethyl)pyridin-2-yl)amino)piperidin-1-yl)methanone] | 595 nM
9 | C[C@H]1[C@H](Nc2nccc(-c3ccccc3)n2)CCCN1C(=O)c1ccccc1-n1nccn1 (racemic) [Example 51, (±)-trans-(2-(2H-1,2,3-triazol-2-yl)phenyl)(2-methyl-3-((4-phenylpyrimidin-2-yl)amino)piperidin-1-yl)methanone] | 2100 nM

Results, then the compound that gave them:

Row | Ki | Structure (SMILES)
10 | 207 nM | C[C@H]1[C@H](Nc2ccc(Cl)cn2)CCCN1C(=O)c1ccccc1-n1nccn1 [Example 100, (2-(2H-1,2,3-triazol-2-yl)phenyl)((2S,3R)-3-((5-chloropyridin-2-yl)amino)-2-methylpiperidin-1-yl)methanone]
11 | > 10000 nM | COc1c(F)cccc1C(=O)N1CCC[C@@H](Nc2nccc(-c3ccccc3)n2)[C@H]1C (racemic) [Example 67, (±)-cis-(3-fluoro-2-methoxyphenyl)(2-methyl-3-((4-phenylpyrimidin-2-yl)amino)piperidin-1-yl)methanone]
12 | > 10000 nM | CCOc1ccccc1C(=O)N1CCC[C@@H](Nc2nccc(-c3ccccc3)n2)[C@H]1C (racemic) [Example 68, (±)-cis-(2-ethoxyphenyl)(2-methyl-3-((4-phenylpyrimidin-2-yl)amino)piperidin-1-yl)methanone]
13 | 1800 nM | C[C@@H]1[C@H](Nc2nccc(-c3ccccc3)n2)CCCN1C(=O)c1ccccc1-n1nccn1 (racemic) [Example 66, (±)-cis-(2-(2H-1,2,3-triazol-2-yl)phenyl)(2-methyl-3-((4-phenylpyrimidin-2-yl)amino)piperidin-1-yl)methanone]
